Patent US12227802B2, “Nucleotides with a 3′ AOM blocking group” (Illumina Cambridge Limited, priority 2018, dated 2025)

How the values were obtained:
Assay type in all cases: physicochemical
[1] = Deblocking test of 3′ blocked T nucleotides in solution (Pd/THP for AOM, THP for azidomethyl; HPLC); details: 0.1 mM nucleotide, Pd/THP=1/5, 1 mM THP, ethanolamine pH 9.8, room temperature
Method: In this example, deblocking tests for 5′-mP 3′-AOM T and the standard 5′-mP 3′-O-azidomethyl T nucleotide were performed individually in a solution unique to each blocking group. Conditions were formulated to mimic Illumina's standard deblock reagent as closely as possible, and follow the same methodology. Concentrations of active deblock reagent, buffer, and nucleoside are kept the same across all tests, but the identity of each component was unique. In this way, the observed difference in rate between the individual deblocking chemistries cannot due to the differences in concentration of formulation.
Nucleotide: 5′-monophosphate 3′-O-azidomethyl T. Active Deblock reagent: tris(hydroxypropyl)phosphine (THP) (1M in 18 mΩ water). (Optional) Additive: Sodium ascorbate (0.1 mM in 18 mΩ water) final conc.=1 mM. Buffer: Ethanolamine pH 9.8 (2M in 18 mΩ water). Quenching reagent: H2O2.
Nucleotide: 5′-monophosphate […]. A stock solution of 3′-AOM T was diluted to 0.1 mM in a 100 mM ethanolamine buffer (pH 9.8), in a glass vial under nitrogen. A stock solution of sodium ascorbate additive was added to a final concentration of 0.1 mM and the solution stirred 5 minutes. To commence the assay, the deblock reagents (Pd/THP=⅕; sodium ascorbate; ethanolamine) were added, to a final concentration of 1 mM THP, to the stirring solution at room temperature. […]

[2] = 3′-O-thiocarbamate blocking groups stability testing in incorporation buffer at 65° C. (HPLC); details: 9-day testing period (FIG. 6)
Method: The stability tests for 5′-mP 3′-DMTC T nucleotide was performed side by side in an incorporation buffer solution with standard 5′-mP 3′-O-azidomethyl T nucleotide.
For both 5′-mP 3′-DMTC T and 5′-mP 3′-O-azidomethyl T, the final solution volume was 1 mL and the final concentrations of the corresponding nucleotides were both 0.1 mM. Other components of the aqueous buffer solution include ethanolamine (EA), ethanolamine HCl, NaCl (100 mM), and EDTA (2.5 mM). The buffer solution has the following concentration: 0.5 M EA Buffer, 0.5 M NaCl, 0.01 M EDTA.
200 μL of 10× Buffer solution was added to a 1.7 mL polypropylene snap lock microtube and diluted with the correct volume of 18 mΩ water. The corresponding nucleoside was then added, the vial was sealed and mixed via inversion, gentle stirring or pumping with a micropipette. A 40 μL aliquot was taken and analyzed by HPLC to act as a starting (or t=0) value. The vials are then placed in a pre-heated heating mantle set to 65° C., covered with a thick layer of aluminum foil and left to heat for one month. 40 μL aliquots was taken periodically (weck 1: once daily. Wecks 2-4: 1 every 2 days) and analyzed by HPLC to determine the percentage starting material and the percentage deblocked (3′-OH) nucleotide in the samples. HPLC analysis was performed by measuring the area of the stating nucleotide peak and the 3′OH peak. […]

[3] = 3′-O-thiocarbamate (DMTC) deblocking test in solution (HPLC)
Method: In this example, deblocking or deblock tests for 5′-mP 3′-DMTC T and the standard 5′-mP 3′-O-azidomethyl T nucleotide were performed individually in a solution unique to each blocking group. Conditions were formulated to mimic Illumina's standard deblock reagent as closely as possible, and follow the same methodology. Concentrations of active deblock reagent, buffer, and nucleoside are kept the same across all tests, but the identity of each component was unique. In this way, the observed difference in rate between the individual deblocking chemistries cannot due to the differences in concentration of formulation.
Each reaction component was formulated individually as a concentrated stock in 18 mΩ water, stored appropriately, and aliquots combined in a specific order given below. Reaction was commenced by addition of the preformulated deblock reagent. […]
In a 3 mL glass vial was added the preformulated buffer solution followed by preformulated additive solution. […] A 40 μL aliquot was then taken, quenching reagent added and analyzed by HPLC as a reference (or t=0 min) peak. […] At specified time points, 40 μL aliquots were taken and quenched immediately with an appropriate quenching reagent, then analyzed by HPLC to determine the amount of deblocked nucleotide that has occurred at these specified time points. […]

stability compared to nucleotide with standard 3′-O-azidomethyl group [2]	SMILES	speed improvement in deblocking rate in solution compared to standard azidomethyl blocking group [1] [fold]	deblocking with NaIO4 ([3]; 1 mM NaIO4, pH 6.75 phosphate buffer (FIG. 7))	deblocking rate with Oxone compared to standard azidomethyl blocking group ([3]; 1 mM Oxone, pH 8.65 phosphate buffer (FIG. 7))
	C=CCOCOC1C[C@H](n2cc(C)c(=O)[nH]c2=O)O[C@@H]1COP(=O)(O)O (stereo partly shown) [AOM]	10		
improved stability	Cc1cn([C@H]2CC(OC(=S)N(C)C)[C@@H](COP(=O)(O)O)O2)c(=O)[nH]c1=O (stereo partly shown) [DMTC]		not efficient	superior deblocking rate
